Assay results reported in patent US20230183292A1, “IMMUNOMODULATORS” (priority 2020, published 2023).
Like-named read-outs stand apart in the source and are kept apart here. Starred links: 1 amine or outer side, 2 acyl side, 3 side chain; linkers in the order of their positions; H or OH if unused. Positions of bridges follow the written chain, without caps; N, C: chain ends. Non-standard residues stand in square brackets, D forms with d. Residues, ends and D or L forms follow the SMILES beside them. *: point of attachment. X2 = C[C@H](CCC(=O)NCCCN(CCCCNC(=O)CC[C@@H](C)[C@@H]1CC[C@H]2[C@@H]3[C@H](O)C[C@@H]4C[C@H](O)CC[C@]4(C)[C@H]3C[C@H](O)[C@@]21C)*)[C@H]1CC[C@H]2[C@@H]3[C@H](O)C[C@@H]4C[C@H](O)CC[C@]4(C)[C@H]3C[C@H](O)[C@]12C; X15 = C[C@H](CCC(=O)NCCCCNc1c(*)c(=O)c1=O)[C@H]1CC[C@H]2[C@@H]3[C@H](O)C[C@@H]4C[C@H](O)CC[C@]4(C)[C@H]3C[C@H](O)[C@]12C; X20 = CC(C)CCC[C@@H](C)[C@H]1CC[C@H]2[C@@H]3CC[C@H]4C[C@H](NC[C@H](N[*:1])C(=O)[*:2])CC[C@]4(C)[C@H]3CC[C@]12C; X5 = CC(C)CCC[C@@H](C)[C@H]1CC[C@H]2[C@@H]3CC[C@H]4C[C@@H](NC[C@H](N[*:1])C(=O)[*:2])CC[C@]4(C)[C@H]3CC[C@]12C; Cholyl = C[C@H](CCC(=O)*)[C@H]1CC[C@H]2[C@@H]3[C@H](O)C[C@@H]4C[C@H](O)CC[C@]4(C)[C@H]3C[C@H](O)[C@]12C; Trp(1-CH2CO) = O=C([C@H](Cc1cn(CC(=O)[*:3])c2ccccc12)N[*:1])[*:2]; Trp(1-CH2COOH) = N[C@@H](Cc1cn(CC(=O)O)c2ccccc12)C(=O)O; Hyp = O=C(O)[C@@H]1C[C@@H](O)CN1; X12 = O=c1c([*:1])c([*:2])c1=O; NMeNle = CCCC[C@H](NC)C(=O)O; NMeA = CN[C@@H](C)C(=O)O; Dab = NCC[C@H](N)C(=O)O; Dap = NC[C@H](N)C(=O)O

Biological target: T1, PD-1/PD-L1 (Homo sapiens, UniProt Q9NZQ7)
T1 construct: TVMV protease site (C); made in house; host or cells: HEK293T cells
Experiment: PD-1/PD-L1 Homogenous Time-Resolved Fluorescence (HTRF) binding assay
Conditions: PD-1-Ig 20 nM
Method in brief: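 Inhibitors pre-incubated 15 min with PD-L1-His (10 nM final) in dPBS, 0.1% BSA, 0.05% Tween-20, then 15 min with PD-1-Ig (20 nM final). Eu-cryptate anti-Ig (1 nM) and APC anti-His (20 nM) added, 30 min equilibration; HTRF 665/620 nm ratio. Human ECD proteins from HEK293T.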

[1] = PD-L1-His 10 nM, read-out: HTRF IC50

T1 sequence (Q9NZQ7 18-239): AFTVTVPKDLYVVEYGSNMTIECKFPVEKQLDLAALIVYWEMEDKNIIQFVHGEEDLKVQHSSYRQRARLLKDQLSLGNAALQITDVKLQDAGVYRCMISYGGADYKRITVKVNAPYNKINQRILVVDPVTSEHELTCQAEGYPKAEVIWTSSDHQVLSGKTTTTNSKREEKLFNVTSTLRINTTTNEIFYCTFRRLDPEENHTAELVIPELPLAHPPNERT

SMILES	IC50 [1] [nM]	IC50 (HTRF IC50, PD-L1-His 10 nM) [nM]
CCCC[C@H]1C(=O)N(C)[C@@H](CCCC)C(=O)N[C@@H](CC(C)C)C(=O)N[C@H](C(=O)NCC(N)=O)CSCC(=O)N[C@@H](Cc2ccc(O)cc2)C(=O)N(C)[C@@H](C)C(=O)N[C@@H](CC(N)=O)C(=O)N2CCC[C@H]2C(=O)N[C@@H](CN[C@H]2CC[C@@]3(C)[C@@H](CC[C@@H]4[C@@H]3CC[C@]3(C)[C@@H]([C@H](C)CCCC(C)C)CC[C@@H]43)C2)C(=O)N[C@@H](CC(C)C)C(=O)N2C[C@H](O)C[C@H]2C(=O)N[C@@H](Cc2c[nH]c3ccccc23)C(=O)N[C@@H](CCN)C(=O)N[C@@H](Cc2cn(CC(=O)O)c3ccccc23)C(=O)N1C [Example 3008] ({CH2CO}-Y[NMeA]NP[X5]L[Hyp]W[Dab][Trp(1-CH2COOH)][NMeNle][NMeNle]LCG-NH2; thioether N-14)	91	–
CCCC[C@H]1C(=O)N(C)[C@@H](CCCC)C(=O)N[C@@H](CC(C)C)C(=O)N[C@H](C(=O)NCC(N)=O)CSCC(=O)N[C@@H](Cc2ccc(O)cc2)C(=O)N(C)[C@@H](C)C(=O)N[C@@H](CC(N)=O)C(=O)N2CCC[C@H]2C(=O)N[C@@H](CN[C@@H]2CC[C@@]3(C)[C@@H](CC[C@@H]4[C@@H]3CC[C@]3(C)[C@@H]([C@H](C)CCCC(C)C)CC[C@@H]43)C2)C(=O)N[C@@H](CC(C)C)C(=O)N2C[C@H](O)C[C@H]2C(=O)N[C@@H](Cc2c[nH]c3ccccc23)C(=O)N[C@@H](CCN)C(=O)N[C@@H](Cc2cn(CC(=O)O)c3ccccc23)C(=O)N1C [Example 3009] ({CH2CO}-Y[NMeA]NP[X20]L[Hyp]W[Dab][Trp(1-CH2COOH)][NMeNle][NMeNle]LCG-NH2; thioether N-14)	–	130
CCCC[C@H]1C(=O)N(C)[C@@H](CCCC)C(=O)N[C@@H](CC(C)C)C(=O)N[C@H](C(=O)NCC(N)=O)CSCC(=O)N[C@@H](Cc2ccc(O)cc2)C(=O)N(C)[C@@H](C)C(=O)N[C@@H](CC(N)=O)C(=O)N2CCC[C@H]2C(=O)N[C@@H](CNc2c(NCCCCNC(=O)CC[C@@H](C)[C@H]3CC[C@H]4[C@@H]5[C@H](O)C[C@@H]6C[C@H](O)CC[C@]6(C)[C@H]5C[C@H](O)[C@]34C)c(=O)c2=O)C(=O)N[C@@H](CC(C)C)C(=O)N2C[C@H](O)C[C@H]2C(=O)N[C@@H](Cc2c[nH]c3ccccc23)C(=O)N[C@@H](CCNc2c(NCCCCNC(=O)CC[C@@H](C)[C@H]3CC[C@H]4[C@@H]5[C@H](O)C[C@@H]6C[C@H](O)CC[C@]6(C)[C@H]5C[C@H](O)[C@]34C)c(=O)c2=O)C(=O)N[C@@H](Cc2cn(CC(=O)O)c3ccccc23)C(=O)N1C [Example 5001] ({CH2CO}-Y[NMeA]NP[Dap](X15)L[Hyp]W[Dab](X15)[Trp(1-CH2COOH)][NMeNle][NMeNle]LCG-NH2; thioether N-14; N-terminus assumed)	0.7	–
CCCC[C@H]1C(=O)N(C)[C@@H](CCCC)C(=O)N[C@@H](CC(C)C)C(=O)N[C@H](C(=O)NCC(N)=O)CSCC(=O)N[C@@H](Cc2ccc(O)cc2)C(=O)N(C)[C@@H](C)C(=O)N[C@@H](CC(N)=O)C(=O)N2CCC[C@H]2C(=O)N[C@H]2CNc3c(c(=O)c3=O)NCC[C@H](NC(=O)[C@H](Cc3c[nH]c4ccccc34)NC(=O)[C@@H]3C[C@@H](O)CN3C(=O)[C@H](CC(C)C)NC2=O)C(=O)N[C@@H](Cc2cn(CC(=O)N(CCCCNC(=O)CC[C@@H](C)[C@@H]3CC[C@H]4[C@@H]5[C@H](O)C[C@@H]6C[C@H](O)CC[C@]6(C)[C@H]5C[C@H](O)[C@@]43C)CCCNC(=O)CC[C@@H](C)[C@H]3CC[C@H]4[C@@H]5[C@H](O)C[C@@H]6C[C@H](O)CC[C@]6(C)[C@H]5C[C@H](O)[C@]34C)c3ccccc23)C(=O)N1C [Example 6001] ({CH2CO}-Y[NMeA]NP[Dap]L[Hyp]W[Dab][Trp(1-CH2CO)](X2)[NMeNle][NMeNle]LCG-NH2; linker 5-9 via X12; thioether N-14)	850	–
CCCC[C@H]1C(=O)N(C)[C@@H](CCCC)C(=O)N[C@@H](CC(C)C)C(=O)N[C@H](C(=O)NCC(N)=O)CSCC(=O)N[C@@H](Cc2ccc(O)cc2)C(=O)N(C)[C@@H](C)C(=O)N[C@@H](CC(N)=O)C(=O)N2CCC[C@H]2C(=O)N[C@@H](CNC(=O)CC[C@@H](C)[C@H]2CC[C@H]3[C@@H]4[C@H](O)C[C@@H]5C[C@H](O)CC[C@]5(C)[C@H]4C[C@H](O)[C@]23C)C(=O)N[C@@H](CC(C)C)C(=O)N2C[C@H](O)C[C@H]2C(=O)N[C@@H](Cc2c[nH]c3ccccc23)C(=O)N[C@@H](CCNC(=O)CC[C@@H](C)[C@H]2CC[C@H]3[C@@H]4[C@H](O)C[C@@H]5C[C@H](O)CC[C@]5(C)[C@H]4C[C@H](O)[C@]23C)C(=O)N[C@@H](Cc2cn(CC(=O)N(CCCCNC(=O)CC[C@@H](C)[C@@H]3CC[C@H]4[C@@H]5[C@H](O)C[C@@H]6C[C@H](O)CC[C@]6(C)[C@H]5C[C@H](O)[C@@]43C)CCCNC(=O)CC[C@@H](C)[C@H]3CC[C@H]4[C@@H]5[C@H](O)C[C@@H]6C[C@H](O)CC[C@]6(C)[C@H]5C[C@H](O)[C@]34C)c3ccccc23)C(=O)N1C [Example 7001] ({CH2CO}-Y[NMeA]NP[Dap](Cholyl)L[Hyp]W[Dab](Cholyl)[Trp(1-CH2CO)](X2)[NMeNle][NMeNle]LCG-NH2; thioether N-14)	2	–
